Measured values from patent US7423068B2, “Control of parasitic mites of honey bees” (The United States of America as represented by the …, priority 2001, dated 2008).
Several values for one entry are separate records, joined by “and”; a condition that tells them apart may be missing. Equal values may be shown once.

Tests used:
[1] = in words; cited from earlier work
[2] = test system: honey bee (Apis mellifera L.) colony; experiment: Maximum levels of 2-heptanone without negatively impacting bee behavior (observation hive); format: in vivo; settings: pure 2-heptanone up to 500 μL on filter paper (2700 ppm v/v or 0.27%), queenless two-frame hive, 23° C.
Method: A test was conducted with 2-heptanone in pure form to determine its effects on honey bee (Apis mellifera L.) colony behavior and ascertain if there was a maximum dose of 2 heptanone that could induce a colony to leave their hive. Two full sized frames were taken from a colony in our local apiary and placed inside a two-frame observation hive having a total volume of 8565 cm^3.These two frames contained adult worker bees only and were queenless. A 2-day period when no testing occurred was included to allow for colony adjustment to the new dwellings. The observation hive was set up inside a greenhouse with a 2.5 cm tube connected from the side of the observation hive to the side wall of the greenhouse. This tube served as an exit and entrance for the workers.
We fastened a strip of filter paper measuring 7.6 cm by 2.5 cm to the top inside frame of the observation colony with a thumbtack and applied an initial 100 μL of pure 2-heptanone to the filter paper and observed worker behavior. Subsequent applications of 40 μL of 2-heptanone were applied every 4 minutes with observations of worker behavior documented. Ambient temperature at the time of the observations was 23° C. […]
Our experiment ended when 500 μL of pure 2-heptanone was the total amount on our filter paper. Concentration of 500 μL of 2-heptanone in the two-frame observation hive was calculated to be 2700 ppm v/v or 0.27%.

mites = experiment: Minimum Level Treatment Effectiveness petri dish bioassay; format: in vivo; settings: for # of Dead Mites/Total Mites: 17.5 hours exposure
Method: Determination of the minimum amount of 2-heptanone effective in mite mortality in our bioassay was performed according to the following procedure: 3 Kimwipes® were placed on the bottom of petri dishes and slightly moistened with water using a disposable 1 ml pipette. A cut section of Parafilm® M was placed over the moistened Kimwipes® and stretched up and over the outer edge of the petri dish bottom. […] A single Whatman® Filter paper (9.0 cm) was placed on top of the pierced Parafilm® area and pushed down to create space between the filter paper and the petri dish lid. Six to eight mites and two bee larvae were placed on top of the filter paper in each petri dish. A small strip of filter paper was taped to the inside top of each petri dish. Four groups of two petri dishes were labeled according to the type of treatment. The treatments were: 1 μL 2-heptanone; 5 μL 2-heptanone; 10 μL 2-heptanone; and Control (no treatment). All eight dishes were then placed in incubators set to maintain a temperature of 33-34.4° C. Our results were as follows:
In our second bioassay, the same protocol was applied; however we sought to investigate if lower amounts of 2-heptanone could be as effective. In this trial, amounts of 0.5 and 1 μL of 2-heptanone were used. After 17.5 hours exposure to 2-heptanone, our results were as follows: […]

[3] = test system: wax moth (Galleria mellonella); experiment: Control of wax moth in stored frames with drawn comb; format: in vivo; settings: 1, 2 or 3 slow release strips with 60 grams 2-heptanone, after 5 weeks; equipment without 2-heptanone totally infested
From the text: We conducted an experiment where we stored five frames with drawn comb in a nucleus colony box without bees present. In three nucleus colony boxes we placed 1, 2 or 3 strips containing 60 grams of 2-heptanone in a slow release formulation. In a fourth nucleus colony box we placed no 2-heptanone. Within 2 weeks after the start of the experiment, the equipment without 2-heptanone had wax moth adults present between the frames. The adults probably were laying eggs. After 5 weeks, the equipment without 2-heptanone was totally infested with wax moth. There still was no wax moth in any equipment containing 2-heptanone.

Compound: CCCCCC(C)=O [2-Heptanone]
- solubility in water [1]: very slightly soluble in water
- bees exiting the observation hive [2]: At no time however, did all bees fully or permanently exit the observation hive
- # of Dead Mites/Total Mites (mites; 0.5 μL 2-heptanone, per dish): 1/6 and 1/5 and 2/6 and 0/5
- # of Dead Mites/Total Mites (mites; 1 μL 2-heptanone, per dish): 3/6 and 0/5 and 1/4 and 1/5
- % Mortality 25.5 hours (mites; 1 μL 2-heptanone, per dish): 50% and 66%
- % Mortality 40.5 hours (mites; 1 μL 2-heptanone, per dish): 50% and 66%
- % Mortality 40.5 hours (mites; 5 μL 2-heptanone, per dish): 100% and 68%
- % Mortality 17.5 hours (mites; 10 μL 2-heptanone, per dish): 66% and 40%
- % Mortality 25.5 hours (mites; 10 μL 2-heptanone, per dish): 66% and 50%
- % Mortality 40.5 hours (mites; 10 μL 2-heptanone, per dish): 66% and 60%
- action on the mites at higher concentrations (mites; mites inanimate at 1 hour, active again as 2-heptanone evaporated): knockdown action
- minimum amount of 2-heptanone that will cause mite mortality (mites; petri dish): 1 µL
- wax moth infestation of stored equipment [3]: no wax moth
